Measurements: ChEMBL document CHEMBL1155634, “New butenolides from two marine streptomycetes” (J Nat Prod, 2000)
Calls of active or inactive are those of the source. The rule behind the calls is not given here.

Columns and labels:
Type in all cases: functional, organism-based
[1] = test system: Streptomyces viridochromogenes; experiment: Antibacterial activity against Streptomyces viridochromogenes Tu57 assessed as inhibition of spore formation
Rhizomucor miehei = experiment: Antifungal activity against Mucor miehei Tu284
Candida albicans = experiment: Antifungal activity against Candida albicans
[2] = test system: Streptomyces viridochromogenes; experiment: Antibacterial activity against Streptomyces viridochromogenes Tu57
Escherichia coli = experiment: Antibacterial activity against Escherichia coli
Staphylococcus aureus = experiment: Antibacterial activity against Staphylococcus aureus

| SMILES | Activity [1] | Activity (Rhizomucor miehei) | Activity (Candida albicans) | Activity [2] | Activity (Escherichia coli) | Activity (Staphylococcus aureus) |
| --- | --- | --- | --- | --- | --- | --- |
| CC(=O)C(C)CCCCC[C@H]1C=CC(=O)O1 (some centres undefined) | inactive | inactive | inactive | inactive | inactive | inactive |
| CCC(C)(O)CCCCC[C@H]1C=CC(=O)O1 (some centres undefined) | inactive |  |  |  |  |  |
| CC(O)C(C)CCCCC[C@H]1C=CC(=O)O1 (stereo in doubt; 3) | inactive |  |  |  |  |  |
| CC(O)C(C)CCCCC[C@H]1C=CC(=O)O1 (stereo in doubt; 2) | inactive |  |  |  |  |  |
